Source: article PMC11249646, “Small-Molecule Disruptors of the Interaction between Calcium- and Integrin-Binding Protein 1 and Integrin αIIbβ3 as Novel Antiplatelet Agents” (ACS Pharmacology & Translational Science, 2024)

What follows are molecules tested against T1, CIB1 and αIIb interaction (CIB1-GST : F-αIIb peptide) (Homo sapiens, UniProt Q99828) (assay: FP assay, 1536-well qHTS format (primary and confirmatory screen)). Settings: confirmatory screen.
T1 construct: made in house; host or cells: BL-21 plus RIL cells (E. coli)
T1 sequence (Q99828 1-191): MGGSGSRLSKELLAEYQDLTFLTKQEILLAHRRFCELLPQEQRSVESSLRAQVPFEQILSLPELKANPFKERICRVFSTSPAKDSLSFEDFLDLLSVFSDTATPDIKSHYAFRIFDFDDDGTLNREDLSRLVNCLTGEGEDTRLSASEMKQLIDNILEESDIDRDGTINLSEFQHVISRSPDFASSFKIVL
Type: binding

Row | SMILES | Efficacy (%) (confirmatory screen)
1 | COc1ccc(NC(=O)c2[nH]c(C)c(C(C)=O)c2C)cc1S(=O)(=O)Nc1ccccc1C#N [NCGC00348145-01] | -41
2 | COc1nc2ccc(Br)cc2cc1[C@@H](c1ccccc1)[C@@](O)(CCN(C)C)c1cccc2ccccc12 [NCGC00348215-04] | -94
3 | CC1=C(C(=O)Nc2cccc(C(=O)O)c2)C(c2ccccc2Cl)N=C(Nc2nc3ccccc3o2)N1.O=C(O)C(F)(F)F (stereo not shown) [NCGC00351024-01] | -26
4 | Cc1cccc(C(=O)c2no[n+]([O-])c2C(=O)c2cccc(C)c2)c1.O=C(O)C(F)(F)F [NCGC00351156-01] | -73
5 | Cc1ccccc1C(=O)N1CCc2cc(-c3nc(NC(=O)Cc4ccc(OCCOCCOCCN)cc4)sc3C)ccc21.O=C(O)C(F)(F)F [NCGC00351618-01] | -41
6 | Cn1ccc(=Nc2ccc(NC(=O)c3ccc(/N=c4\ccn(C)c5ccc([N+](=O)[O-])cc45)cc3[N+](=O)[O-])cc2)cc1.O=C(O)C(F)(F)F [NCGC00356066-02] | -82

Same assay, conditions: confirmatory screen, YES/NO

Row | SMILES | Confirm? (confirmatory screen)
7 | COc1ccc(NC(=O)c2[nH]c(C)c(C(C)=O)c2C)cc1S(=O)(=O)Nc1ccccc1C#N [NCGC00348145-01] | YES
8 | COc1nc2ccc(Br)cc2cc1[C@@H](c1ccccc1)[C@@](O)(CCN(C)C)c1cccc2ccccc12 [NCGC00348215-04] | YES
9 | CC1=C(C(=O)Nc2cccc(C(=O)O)c2)C(c2ccccc2Cl)N=C(Nc2nc3ccccc3o2)N1.O=C(O)C(F)(F)F (stereo not shown) [NCGC00351024-01] | YES
10 | Cc1cccc(C(=O)c2no[n+]([O-])c2C(=O)c2cccc(C)c2)c1.O=C(O)C(F)(F)F [NCGC00351156-01] | YES
11 | Cc1ccccc1C(=O)N1CCc2cc(-c3nc(NC(=O)Cc4ccc(OCCOCCOCCN)cc4)sc3C)ccc21.O=C(O)C(F)(F)F [NCGC00351618-01] | YES
12 | Cn1ccc(=Nc2ccc(NC(=O)c3ccc(/N=c4\ccn(C)c5ccc([N+](=O)[O-])cc45)cc3[N+](=O)[O-])cc2)cc1.O=C(O)C(F)(F)F [NCGC00356066-02] | YES

Same assay, conditions: confirmatory screen, qHTS curve class; negative sign = inhibitory curve

Row | SMILES | Curve Class (confirmatory screen)
13 | COc1ccc(NC(=O)c2[nH]c(C)c(C(C)=O)c2C)cc1S(=O)(=O)Nc1ccccc1C#N [NCGC00348145-01] | -2.2
14 | COc1nc2ccc(Br)cc2cc1[C@@H](c1ccccc1)[C@@](O)(CCN(C)C)c1cccc2ccccc12 [NCGC00348215-04] | -2.2
15 | CC1=C(C(=O)Nc2cccc(C(=O)O)c2)C(c2ccccc2Cl)N=C(Nc2nc3ccccc3o2)N1.O=C(O)C(F)(F)F (stereo not shown) [NCGC00351024-01] | -2.4
16 | Cc1cccc(C(=O)c2no[n+]([O-])c2C(=O)c2cccc(C)c2)c1.O=C(O)C(F)(F)F [NCGC00351156-01] | -2.2
17 | Cc1ccccc1C(=O)N1CCc2cc(-c3nc(NC(=O)Cc4ccc(OCCOCCOCCN)cc4)sc3C)ccc21.O=C(O)C(F)(F)F [NCGC00351618-01] | -1.2
18 | Cn1ccc(=Nc2ccc(NC(=O)c3ccc(/N=c4\ccn(C)c5ccc([N+](=O)[O-])cc45)cc3[N+](=O)[O-])cc2)cc1.O=C(O)C(F)(F)F [NCGC00356066-02] | -1.2

Same assay, conditions: confirmatory screen; read-out: IC50 [μM] (confirmatory screen)

Row | SMILES | IC50 [µM]
19 | COc1ccc(NC(=O)c2[nH]c(C)c(C(C)=O)c2C)cc1S(=O)(=O)Nc1ccccc1C#N [NCGC00348145-01] | 35.5
20 | COc1nc2ccc(Br)cc2cc1[C@@H](c1ccccc1)[C@@](O)(CCN(C)C)c1cccc2ccccc12 [NCGC00348215-04] | 89.1
21 | Cc1cccc(C(=O)c2no[n+]([O-])c2C(=O)c2cccc(C)c2)c1.O=C(O)C(F)(F)F [NCGC00351156-01] | 31.6
22 | Cc1ccccc1C(=O)N1CCc2cc(-c3nc(NC(=O)Cc4ccc(OCCOCCOCCN)cc4)sc3C)ccc21.O=C(O)C(F)(F)F [NCGC00351618-01] | 39.8

Same assay, conditions: qHTS FP screen hits, Table S2; negative = inhibition

Row | Efficacy (%) | SMILES
23 | -21 | COc1ccc(NC(=O)c2[nH]c(C)c(C(C)=O)c2C)cc1S(=O)(=O)Nc1ccccc1C#N [NCGC00348145-01]
24 | -64 | COc1nc2ccc(Br)cc2cc1[C@@H](c1ccccc1)[C@@](O)(CCN(C)C)c1cccc2ccccc12 [NCGC00348215-04]

Row | SMILES | Efficacy (%)
25 | CC1=C(C(=O)Nc2cccc(C(=O)O)c2)C(c2ccccc2Cl)N=C(Nc2nc3ccccc3o2)N1.O=C(O)C(F)(F)F (stereo not shown) [NCGC00351024-01] | -37

Same assay, conditions: qHTS FP screen hits, Table S2; one class per curve where COUNT > 1; negative sign = inhibitory curve

Row | SMILES | Curve Class
26 | COc1nc2ccc(Br)cc2cc1[C@@H](c1ccccc1)[C@@](O)(CCN(C)C)c1cccc2ccccc12 [NCGC00348215-04] | -2.2
27 | CC1=C(C(=O)Nc2cccc(C(=O)O)c2)C(c2ccccc2Cl)N=C(Nc2nc3ccccc3o2)N1.O=C(O)C(F)(F)F (stereo not shown) [NCGC00351024-01] | -2.2

Same assay, conditions: qHTS FP screen hits, Table S2; read-out: IC50

Row | IC50 [µM] | SMILES
28 | 31.6 | COc1ccc(NC(=O)c2[nH]c(C)c(C(C)=O)c2C)cc1S(=O)(=O)Nc1ccccc1C#N [NCGC00348145-01]
29 | 50.1 | COc1nc2ccc(Br)cc2cc1[C@@H](c1ccccc1)[C@@](O)(CCN(C)C)c1cccc2ccccc12 [NCGC00348215-04]

Row | SMILES | IC50 [µM]
30 | CC1=C(C(=O)Nc2cccc(C(=O)O)c2)C(c2ccccc2Cl)N=C(Nc2nc3ccccc3o2)N1.O=C(O)C(F)(F)F (stereo not shown) [NCGC00351024-01] | 39.8

Same assay, conditions: qHTS primary screen hits, Table S2; negative = inhibition

Row | SMILES | Efficacy (%)
31 | Cc1cccc(C(=O)c2no[n+]([O-])c2C(=O)c2cccc(C)c2)c1.O=C(O)C(F)(F)F [NCGC00351156-01] | -52
32 | Cc1ccccc1C(=O)N1CCc2cc(-c3nc(NC(=O)Cc4ccc(OCCOCCOCCN)cc4)sc3C)ccc21.O=C(O)C(F)(F)F [NCGC00351618-01] | -25
33 | Cn1ccc(=Nc2ccc(NC(=O)c3ccc(/N=c4\ccn(C)c5ccc([N+](=O)[O-])cc45)cc3[N+](=O)[O-])cc2)cc1.O=C(O)C(F)(F)F [NCGC00356066-02] | -65

Same assay, conditions: qHTS primary screen hits, Table S2; negative sign = inhibitory curve; several classes where COUNT > 1

Row | SMILES | Curve Class
34 | Cc1cccc(C(=O)c2no[n+]([O-])c2C(=O)c2cccc(C)c2)c1.O=C(O)C(F)(F)F [NCGC00351156-01] | -1.2
35 | Cc1ccccc1C(=O)N1CCc2cc(-c3nc(NC(=O)Cc4ccc(OCCOCCOCCN)cc4)sc3C)ccc21.O=C(O)C(F)(F)F [NCGC00351618-01] | -1.4
36 | Cn1ccc(=Nc2ccc(NC(=O)c3ccc(/N=c4\ccn(C)c5ccc([N+](=O)[O-])cc45)cc3[N+](=O)[O-])cc2)cc1.O=C(O)C(F)(F)F [NCGC00356066-02] | -2.2

Same assay, conditions: qHTS primary screen hits, Table S2; read-out: IC50

Row | SMILES | IC50 [µM]
37 | Cc1cccc(C(=O)c2no[n+]([O-])c2C(=O)c2cccc(C)c2)c1.O=C(O)C(F)(F)F [NCGC00351156-01] | 7.9
38 | Cc1ccccc1C(=O)N1CCc2cc(-c3nc(NC(=O)Cc4ccc(OCCOCCOCCN)cc4)sc3C)ccc21.O=C(O)C(F)(F)F [NCGC00351618-01] | 17.8
39 | Cn1ccc(=Nc2ccc(NC(=O)c3ccc(/N=c4\ccn(C)c5ccc([N+](=O)[O-])cc45)cc3[N+](=O)[O-])cc2)cc1.O=C(O)C(F)(F)F [NCGC00356066-02] | 39.8

These molecules were tested against T2, GST-CIB1 : F-scrambled peptide (Homo sapiens, UniProt Q99828) (assay: FP scrambled-peptide counter screen, 1536-well format). Settings: counterscreen.
T2 construct: made in house; host or cells: BL-21 plus RIL cells (E. coli)
T2 sequence (Q99828 1-191): T1 sequence (Q99828 1-191)
Type: binding

Row | SMILES | Efficacy (%) (counterscreen)
40 | COc1ccc(NC(=O)c2[nH]c(C)c(C(C)=O)c2C)cc1S(=O)(=O)Nc1ccccc1C#N [NCGC00348145-01] | 157
41 | COc1nc2ccc(Br)cc2cc1[C@@H](c1ccccc1)[C@@](O)(CCN(C)C)c1cccc2ccccc12 [NCGC00348215-04] | -83
42 | CC1=C(C(=O)Nc2cccc(C(=O)O)c2)C(c2ccccc2Cl)N=C(Nc2nc3ccccc3o2)N1.O=C(O)C(F)(F)F (stereo not shown) [NCGC00351024-01] | 141
43 | Cc1cccc(C(=O)c2no[n+]([O-])c2C(=O)c2cccc(C)c2)c1.O=C(O)C(F)(F)F [NCGC00351156-01] | -65
44 | Cc1ccccc1C(=O)N1CCc2cc(-c3nc(NC(=O)Cc4ccc(OCCOCCOCCN)cc4)sc3C)ccc21.O=C(O)C(F)(F)F [NCGC00351618-01] | -31
45 | Cn1ccc(=Nc2ccc(NC(=O)c3ccc(/N=c4\ccn(C)c5ccc([N+](=O)[O-])cc45)cc3[N+](=O)[O-])cc2)cc1.O=C(O)C(F)(F)F [NCGC00356066-02] | -46

Same assay, conditions: counterscreen, YES/NO

Row | SMILES | Confirm? (counterscreen)
46 | COc1ccc(NC(=O)c2[nH]c(C)c(C(C)=O)c2C)cc1S(=O)(=O)Nc1ccccc1C#N [NCGC00348145-01] | YES
47 | CC1=C(C(=O)Nc2cccc(C(=O)O)c2)C(c2ccccc2Cl)N=C(Nc2nc3ccccc3o2)N1.O=C(O)C(F)(F)F (stereo not shown) [NCGC00351024-01] | YES

Same assay, conditions: counterscreen, qHTS curve class; negative sign = inhibitory curve

Row | SMILES | Curve Class (counterscreen)
48 | COc1ccc(NC(=O)c2[nH]c(C)c(C(C)=O)c2C)cc1S(=O)(=O)Nc1ccccc1C#N [NCGC00348145-01] | 3
49 | COc1nc2ccc(Br)cc2cc1[C@@H](c1ccccc1)[C@@](O)(CCN(C)C)c1cccc2ccccc12 [NCGC00348215-04] | -2.2
50 | Cc1cccc(C(=O)c2no[n+]([O-])c2C(=O)c2cccc(C)c2)c1.O=C(O)C(F)(F)F [NCGC00351156-01] | -1.2
51 | Cc1ccccc1C(=O)N1CCc2cc(-c3nc(NC(=O)Cc4ccc(OCCOCCOCCN)cc4)sc3C)ccc21.O=C(O)C(F)(F)F [NCGC00351618-01] | -2.4
52 | Cn1ccc(=Nc2ccc(NC(=O)c3ccc(/N=c4\ccn(C)c5ccc([N+](=O)[O-])cc45)cc3[N+](=O)[O-])cc2)cc1.O=C(O)C(F)(F)F [NCGC00356066-02] | -1.2

Same assay, conditions: counterscreen; read-out: IC50 [μM] (counterscreen)

Row | SMILES | IC50 [µM]
53 | COc1ccc(NC(=O)c2[nH]c(C)c(C(C)=O)c2C)cc1S(=O)(=O)Nc1ccccc1C#N [NCGC00348145-01] | 39.8
54 | COc1nc2ccc(Br)cc2cc1[C@@H](c1ccccc1)[C@@](O)(CCN(C)C)c1cccc2ccccc12 [NCGC00348215-04] | 89.1
55 | CC1=C(C(=O)Nc2cccc(C(=O)O)c2)C(c2ccccc2Cl)N=C(Nc2nc3ccccc3o2)N1.O=C(O)C(F)(F)F (stereo not shown) [NCGC00351024-01] | 79.4
56 | Cc1cccc(C(=O)c2no[n+]([O-])c2C(=O)c2cccc(C)c2)c1.O=C(O)C(F)(F)F [NCGC00351156-01] | 10
57 | Cc1ccccc1C(=O)N1CCc2cc(-c3nc(NC(=O)Cc4ccc(OCCOCCOCCN)cc4)sc3C)ccc21.O=C(O)C(F)(F)F [NCGC00351618-01] | 11.2
58 | Cn1ccc(=Nc2ccc(NC(=O)c3ccc(/N=c4\ccn(C)c5ccc([N+](=O)[O-])cc45)cc3[N+](=O)[O-])cc2)cc1.O=C(O)C(F)(F)F [NCGC00356066-02] | 12.6
